Measurements from paper PMC10644722, “Discovery of inhibitors of protein tyrosine phosphatase 1B contained in a natural products library from Mexican medicinal plants and fungi using a combination of enzymatic and in silico methods**” (Frontiers in Pharmacology, 2023).
Several values for one entry are separate records, joined by “and”; a condition that tells them apart may be missing. Identical values can stand only once. Like-named read-outs stand apart in the source and are kept apart here.

Target: T1, hPTP1B1-400 (Homo sapiens, UniProt P18031)
T1 sequence (P18031 1-400): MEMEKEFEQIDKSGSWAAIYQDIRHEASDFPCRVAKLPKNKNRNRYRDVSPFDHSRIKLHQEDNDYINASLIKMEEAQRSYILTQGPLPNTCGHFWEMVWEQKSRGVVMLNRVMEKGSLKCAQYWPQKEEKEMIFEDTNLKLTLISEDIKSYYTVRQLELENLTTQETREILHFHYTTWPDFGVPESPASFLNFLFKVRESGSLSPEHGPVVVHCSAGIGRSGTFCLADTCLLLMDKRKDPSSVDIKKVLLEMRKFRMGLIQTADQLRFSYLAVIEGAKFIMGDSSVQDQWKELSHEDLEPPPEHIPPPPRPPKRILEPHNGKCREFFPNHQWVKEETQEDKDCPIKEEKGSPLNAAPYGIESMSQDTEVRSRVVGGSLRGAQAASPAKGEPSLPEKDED
Test: PTP1B inhibition assay (spectrophotometric, 4-nitrophenyl phosphate)
Type: biochemical
Settings: for ΔA, activity difference between UA and the compound: absolute pIC50 difference against ursolic acid
Procedure: The inhibitory activity was determined as a percentage compared to the blank (Buffer) according to the following equation: %InhibitionPTP1B=1−A405s/A405b×100%, (1) where A405(s) is the ΔA of the sample (At20 − At0), A405(b) is the ΔA of the blank obtained in the same manner as that of the sample. Using the data obtained, the enzyme inhibition curve was plotted, for which the average percentage of inhibition was plotted as a function of the inhibitor concentration.

[1] = Hill1 model fit, Origin 8.0, axis C (mM), read-out: k of the IC50 curve
[2] = enzyme 66 nM, 4-NP 0.125 mM, Tris-HCl pH 6.8, 20 min, room temperature, read-out: IC50
[3] = negative log of the IC50 in Molar
[4] = DoseResp model fit, Origin 8.0, axis C (mM), read-out: LOGx0 of the IC50 curve
[5] = IC50 (μM), enzyme 66 nM, 4-NP 0.125 mM, Tris-HCl pH 6.8, 20 min, room temperature
[6] = LOGx0 of the IC50 curve, DoseResp model fit, Origin 8.0, axis C (mM)
[7] = pIC50, negative log of the IC50 in Molar
[8] = negative log of the IC50 in Molar, read-out: pIC50 (converted)

| IC50 [8] [mM] | Molecule | IC50 [1] [mM] | ΔA, activity difference between UA and the compound | IC50 [2] [mM] | pIC50 [3] | IC50 [4] [mM] | %I (0.02 mM compound) [%] | %I (1 mM compound) [%] | IC50 [5] [mM] | IC50 [6] [mM] | IC50 [7] [mM] |
| --- | --- | --- | --- | --- | --- | --- | --- | --- | --- | --- | --- |
|  | 4-Hydroxy-3,3',5-trimetoxybibencyl [Compound 77] | 0.221 ± 0.147 | 1.0 | 0.221 ± 0.0001 | 3.66 |  |  |  |  |  |  |
|  | 5,7-Diacetylchrysin [Compound 54] | 0.362 ± 0.0378 | 1.2 | 0.3618 ± 4e-05 | 3.44 |  |  |  |  |  |  |
|  | 7-Methylluteolin [Compound 50] |  | 1.3 | 0.4349 ± 8e-06 | 3.36 | 0.435 ± 0.00856 |  |  |  |  |  |
|  | COc1cc(OC2OC(CO)C(O)C(O)C2O)c2c(-c3ccc(O)c(O)c3)cc(=O)oc2c1 [Compound 2, 5-O-(β-D-Glucopyranosyl)-7-methoxy-3'-4'-dihydroxy-4-phenylcoumarin] |  | 0.3 |  |  |  | 42.48 ± 1.16 | 95.13 ± 0.54 | 0.0404 ± 2e-05 | 0.0404 ± 0.0232 | 0.0407 |
| 0.0575 | COc1cc(-c2cc(=O)c3c(O)c(O)c(OC)cc3o2)ccc1O [Compound 5, 4',5,6-Trihydroxy-3',7-dimethoxyflavone] |  | 0.42 and 0.4 | 0.0573 ± 2e-05 |  | 0.0573 ± 0.0213 |  |  |  |  |  |
| 0.0832 | C=C(C)[C@H]1COc2c(C)cc3oc4c(C[C@H](O)C(C)(C)O)ccc(O)c4c(=O)c3c2[C@@H]1O [Compound 7, Tajixanthone hydrate] |  | 0.6 | 0.0832 ± 1e-06 |  | 0.0832 ± 0.00124 |  |  |  |  |  |
| 0.0891 | O=C(OCC1OC(Oc2c(-c3ccc(O)c(O)c3)oc3cc(O)cc(O)c3c2=O)C(O)C(O)C1O)c1ccccc1 [Compound 8, Quercetin-3-O-(6''-benzoyl)-β-D-galactoside] |  | 0.6 | 0.0888 ± 5e-05 |  | 0.0888 ± 0.0504 |  |  |  |  |  |
| 0.0891 | COc1cc(C)c2c(=O)c3c(O)cc(OC)cc3oc2c1 [Compound 9, Lichexanthone] |  | 0.6 | 0.0888 ± 5e-06 |  | 0.0888 ± 0.00531 |  |  |  |  |  |
|  | CC(C)(O)CCC(=O)[C@](C)(O)[C@H]1[C@H](O)C[C@@]2(C)[C@@H]3CC=C4[C@@H](C[C@H](O)[C@@H](O[C@@H]5O[C@H](CO)[C@@H](O)[C@H](O)[C@H]5O)C4(C)C)[C@]3(C)C(=O)C[C@]12C [Compound 14, 3-O-β-D-Glucopyranosyl-23,24-dihydrocucurbitacin F] |  | 1.2 | 0.3583 ± 1.2e-05 | 3.45 | 0.358 ± 0.0127 |  |  |  |  |  |
|  | CC(=O)OC(C)(C)/C=C/C(=O)[C@](C)(O)[C@H]1[C@H](O)C[C@@]2(C)[C@@H]3CC=C4[C@@H](C[C@H](O[C@@H]5O[C@H](CO)[C@@H](O)[C@H](O)[C@H]5O)C(=O)C4(C)C)[C@]3(C)C(=O)C[C@]12C [Compound 15, Arvenin I] | 0.564 ± 0.041 | 1.4 | 0.5643 ± 4.1e-05 | 3.25 |  |  |  |  |  |  |
|  | CC(=O)OC[C@H]1O[C@@H](Oc2cc(O)cc3oc(=O)cc(-c4ccc(O)cc4)c23)[C@H](O)[C@@H](O)[C@H]1O [Compound 18, 6''-O-Acetyl-5-O-β-D-galactopyranosyl-7,4'-dihydroxy-4-phenylcoumarin] | 0.349 ± 0.0341 | 1.2 | 0.3486 ± 3e-05 | 3.46 |  |  |  |  |  |  |
|  | Oc1cccc(CCc2ccc3c(c2)OCO3)c1 [Compound 25] |  | 1.5 | 0.6621 ± 0.00013 | 3.18 | 0.662 ± 0.134 |  |  |  |  |  |
|  | C=C1C(=O)O[C@@H]2C[C@@]3(C)CCC=C(C)[C@@H]3C[C@H]12 [Compound 32, Isoalloalantolactone] |  | 1.3 | 0.4432 ± 5e-05 | 3.35 | 0.443 ± 0.0513 |  |  |  |  |  |
| 0.245 | COc1cc(O)cc(CCc2cccc(O)c2)c1 [Compound 34, Batatasin III] |  | 1.1 | 0.2474 ± 7e-05 |  | 0.247 ± 0.0675 |  |  |  |  |  |
| 0.427 | CN1C(=O)c2ccccc2-n2c(nc3ccccc3c2=O)[C@@H]1Cc1ccccc1 [Compound 40, Benzomalvin A] |  | 1.3 | 0.4242 ± 5e-06 |  | 0.424 ± 0.00536 |  |  |  |  |  |
| 0.646 | CCCCCCCCCCCCCCCCCCCCOC(=O)C=Cc1ccc(O)c(OC)c1 [Compound 43, Eicosyl 4-hydroxy-3-methoxy-cinnamate] |  | 1.5 | 0.6483 ± 0.00013 |  | 0.648 ± 0.131 |  |  |  |  |  |
|  | COc1ccc([C@H]2OC[C@H]3[C@@H]2CO[C@@H]3c2ccc3c(c2OC)OCO3)cc1OC [Compound 47, 2'-Methoxykobusin] | 0.125 ± 0.00914 | 0.8 | 0.1253 ± 9e-06 | 3.90 |  |  |  |  |  |  |
|  | C/C(=C/CC[C@H](C)[C@@H]1CC[C@]2(C)C3=CC[C@H]4C(C)(C)[C@H](O)CC[C@]4(C)[C@H]3CC[C@@]12C)C(=O)O [Compound 49, 3α-Hydroxymasticadienonic acid] |  | 0.8 | 0.1507 ± 5e-06 | 3.82 | 0.151 ± 0.0053 |  |  |  |  |  |
| 0.851 | O=c1c(O[C@@H]2O[C@H](CO)[C@H](O)[C@H](O)[C@H]2O)c(-c2ccc(O)cc2)oc2cc(O)cc(O)c12 [Compound 51, Trifolin] |  | 1.6 | 0.859 ± 0.0003 |  | 0.859 ± 0.0259 |  |  |  |  |  |
| 0.309 | O=C1C[C@@H](c2ccccc2)Oc2cc(O)cc(O)c21 [Compound 53, Pinocembrin] |  | 1.1 | 0.3062 ± 2e-05 |  | 0.306 ± 0.0184 |  |  |  |  |  |
| 0.891 | C[C@H]1C(=O)CC[C@@H]2[C@]1(C)CC[C@H]1[C@@]2(C)CC[C@@]2(C)[C@@H]3CC(C)(C)CC[C@]3(C)CC[C@]12C [Compound 56, Friedelin] |  | 1.6 and 1.61 | 0.8878 ± 4e-05 |  | 0.888 ± 0.0408 |  |  |  |  |  |
|  | COc1cc(=O)oc2c(O[C@@H]3O[C@H](CO)[C@@H](O)[C@H](O)[C@H]3O)ccc(C)c12 [Compound 63, 8-β-D-glucopyranosyloxy-4-methoxy-5-methyl-coumarin] |  | 0.9 | 0.1657 ± 2e-05 | 3.78 | 0.166 ± 0.0177 |  |  |  |  |  |
|  | CC(=O)OC[C@H]1O[C@@H](Oc2cc(O)cc3oc(=O)cc(-c4ccc(O)c(O)c4)c23)[C@H](O)[C@@H](O)[C@H]1O [Compound 67, 6''-O-acetyl-5-O-β-D-galactopyranosyl-7,3',4'-trihydroxy-4-phenylcoumarin] |  | 1.1 | 0.2543 ± 0.0002 | 3.59 | 0.254 ± 0.203 |  |  |  |  |  |
|  | COc1cc(O[C@@H]2O[C@H](CO[C@@H]3OCC(O)(CO)[C@H]3O)[C@@H](O)[C@H](O)[C@H]2O)c2c(-c3ccc(O)c(O)c3)cc(=O)oc2c1 (stereo partly drawn) [Compound 73, 5-O-β-D-Apiofuranosyl-(1→6)-β-D-glucopyranosyl-7-metoxi-3'-4'-dihydroxy-4-phenylcoumarin] |  | 1.2 | 0.3586 ± 7e-05 | 3.45 | 0.359 ± 0.0682 |  |  |  |  |  |
|  | O=C(O[C@@H]1Cc2c(O)cc(O)cc2O[C@@H]1c1ccc(O)c(O)c1)c1cc(O)c(O)c(O)c1 [Compound 82, (-)-Epicatechin 3-O-gallate] | 0.142 ± 0.00656 | 0.8 | 0.1424 ± 7e-06 | 3.85 |  |  |  |  |  |  |
|  | CC[C@H](/C=C/[C@@H](C)[C@H]1CC[C@H]2C3=CC[C@H]4C[C@@H](OC(C)=O)CC[C@]4(C)[C@H]3CC[C@]12C)C(C)C [Compound 85, α-Spinasterol acetate] |  | 1.1 |  |  |  |  |  | 0.2772 ± 1e-05 | 0.277 ± 0.0114 | 0.275 |

| Molecule | IC50 [8] [mM] | IC50 [1] [mM] | ΔA, activity difference between UA and the compound | IC50 [2] [mM] | pIC50 [3] | IC50 [4] [mM] | %I (0.02 mM compound) [%] | %I (1 mM compound) [%] | IC50 [5] [mM] | IC50 [6] [mM] | IC50 [7] [mM] |
| --- | --- | --- | --- | --- | --- | --- | --- | --- | --- | --- | --- |
| CC(=CCCC(C)C1CCC2(C)C3=CCC4C(C)(C)C(=O)CCC4(C)C3CCC12C)C(=O)O (centres unmarked) [Compound 4, Masticadienonic acid] | 0.049 |  | 0.4 | 0.0491 ± 4e-06 |  | 0.0491 ± 0.00475 |  |  |  |  |  |
| CC(C)(O)C(O)C1CC(C2CCC3(C)C4=CCC5C(C)(C)C(=O)CCC5(C)C4CCC23C)C(O)O1 (centres unmarked) [Compound 10, Melianodiol] | 0.0912 |  | 0.6 | 0.0921 ± 4e-05 |  |  |  |  |  |  |  |
| COc1c(O)cc2cc(OC)c3cc(O)ccc3c2c1OC [Compound 41, Gymnopusin] | 0.427 |  | 1.3 | 0.4314 ± 1e-05 |  | 0.431 ± 0.0111 |  |  |  |  |  |
| C=C(C)C(C)(C)CCC(C)C1CCC2(C)C3CCC4C(C)(CCC(O)C4(C)C)C3=CCC12C (stereo not drawn) [Compound 64, 5α-lanosta-24,24-dimethyl-9(11),25-dien-3β-ol] | 0.398 |  | 1.3 | 0.3985 ± 3e-05 |  | 0.399 ± 0.025 |  |  |  |  |  |
| CCC(C=CC(C)C1CCC2C3=CCC4CC(O)CCC4(C)C3CCC21C)C(C)C (stereo not drawn) [Compound 84, α-Spinasterol] | 1 |  | 1.7 and 1.66 | 0.9891 ± 0.00014 |  | 0.989 ± 0.137 |  |  |  |  |  |
